Reference: publication PMC11876601 (Molecular Systems Biology, 2025)
“And” between values parts separate entries of the source, which are not always exact repeats. Identical values can stand only once. Like-named read-outs stand apart in the source and are kept apart here.

Legend:
PTK2B = target: PTK2B; parameters: method as in Reinecke et al. (2023); conditions: 5 cell line mix lysate, Kinobeads ε, ref Reinecke et al. (2023), cited from earlier work
WEE1 = conditions: WEE1, 5 cell line mix lysate, Kinobeads ε, ref Reinecke et al. (2023), cited from earlier work
[1] = tested on: protein expression in AsPC-1 cells; experiment: Time-dependent protein expression analysis (1 µM GEM or 1 µM ATRi, 15 min-24 h); type: cell-based, human; conditions: GEM
Procedure: Cell culture medium was replaced 24 h after seeding. […] For time point 0, AsPC-1 cells were treated with a vehicle and lysed immediately. The final DMSO concentration in all experiments was 0.2%.
LC-MS/MS measurement of non-enriched, TMT-labeled peptides from temporal drug perturbation was carried out on an Orbitrap Fusion Lumos Tribrid instrument (Thermo Scientific) coupled to a micro-flow LC system built by combining a modified Vanquish pump and the autosampler of the Dionex UltiMate 3000 nano HPLC System (Thermo Scientific). Dried peptides were reconstituted in 0.1% formic acid and loaded directly onto an Acclaim PepMap 100 C18 column (2 μm particle size, 1 mm × 150 mm, Thermo Scientific) heated at 55 °C. […] Flow rates of sheath, aux, and sweep gas were kept at 32, 5, and 0, respectively. […] The cycle time between MS1 scans was 1.2 s, with a dynamic exclusion duration of 50 s.
Peptide and protein identification and quantification of time-series raw data was performed with MaxQuant (v2.1.3.0) using the same sequence information as above, with N-terminal acetylation and oxidized methionine as variable modifications and cysteine carbamidomethylation as fixed modification. All other search parameters were set as default. The resulting proteingroups.txt file was filtered to remove potential contaminants and reversed hits. Corrected TMT reporter channel intensities were median-centered, and ratios were calculated between treatments and their respective time-point controls (Appendix Table S6). Proteins were considered conversely regulated if absolute log2 fold change > 2 by at least one drug and oppositely affected by both drugs (up/down) at 24 h.

PDO UME053 = experiment: PDO viability assay (CellTiter-Glo, 72 h); type: cell-based, human; parameters: Curve top / Curve bottom: scale not given here;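 for Curve top: fraction of plate-wise median vehicle signal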
Procedure: Primary patient-derived PDAC organoid (PDO) experiments were performed in the laboratories of Prof. Maximilian Reichert (University Hospital of the TU Munich, Germany, PDO set 1: B250, B535, B678) and Prof. Jens T. Siveke (University Hospital Essen, Germany; PDO set 2: UME008, UME012, UME051, UME053, UME060, UME061). PDOs were generated from surgical resection, EUS-guided fine needle biopsy (EUS-FNB), or ascites (Appendix Table S2). Surgical specimens were first minced with a sterile scalpel and subsequently washed with Anti-Anti solution and washing medium (PDO set 1), or vice versa (PDO set 2; Appendix Table S3). Biopsy samples were directly washed with an Anti-Anti solution and washing medium. Samples were digested using 1 ml of digestion medium at 37 °C while shaking, and the enzymatic reaction was stopped by adding 15 ml of washing medium (Appendix Table S3). If samples of PDO set 1 were blood-stained, tissue pellets were first incubated with ACK lysing buffer/red blood cells lysis buffer (Thermo Fisher Scientific) for 5 min and then digested using TrypLE (Thermo Fisher Scientific). The reversed procedure was applied for blood-stained samples of PDO set 2. For PDO generation from ascites, the material was first spun down at 500 × g for 5 min. Then, washing medium was added and the suspension was centrifuged at 300 × g for 5 min. If the pellet was blood-stained, ACK lysis buffer was added and incubated at room temperature.
For viability assays in PDOs, confluent organoids were removed from medium, and Matrigel was dissolved by adding 200 μl (PDO set 1) or 2 ml (PDO set 2) of Cell Recovery Solution (Corning), and additionally 500 μl of DPBS (PDO set 1 only). Samples were transferred into a falcon and incubated on ice for 30 min, followed by centrifugation at 300 × g at 4 °C for 5 min (after adding 10 ml washing medium for PDO set 2). Subsequently, TrypLE Express Enzyme (Thermo Fisher) was added to cell pellets and incubated for 2 × 5 min at 37 °C. The enzymatic reaction was quenched by DPBS (PDO set 1) or washing medium (PDO set 2), and samples were washed by centrifugation at 300 × g at 4 °C for 5 min. Five hundred cells/well were seeded in 384-well plates (Corning) in 50 μl of PDO medium containing 10% Matrigel. To allow PDO generation, cells were incubated for 4 days at 37 °C and 5% CO2. […] Experiments were pipetted manually (PDO set 1) or automatically using a TECAN D300e Digital Dispenser (HP; PDO set 2). Treatments were performed in eight replicates, except for PDO PPES045 (quadruplicates). After 72 h, cell viability was measured using the CellTiter-Glo Luminescent Cell Viability Assay (Promega) diluted 1:5 in the final volume of the well. After 20 min of incubation at room temperature under gentle shaking, the acquisition was performed in the microplate reader VantaSTAR (BMG Labtech) using 3000 gain for the amplification measurement of a detected signal (PDO set 1) or the Spark Multimode microplate reader (TECAN) at 800 ms integration time (PDO set 2).

STK4 = tested on: STK4; parameters: method as in Klaeger et al. (2017); conditions: STK4, 4 cell line mix lysate, Kinobeads y, ref Klaeger et al. (2017); cited from earlier work
[2] = PDO UME053, GEM + Elimusertib (ATRi) dose1, per replicate
[3] = PDO UME053, GEM + Elimusertib (ATRi) dose2, per replicate
[4] = PDO UME053, GEM + Elimusertib (ATRi) dose3, per replicate
[5] = PDO UME053, GEM alone, per replicate
[6] = PDO UME053, experiment GEM (GEM alone), curve fit

COc1cc(N2CCC(N3CCN(C)CC3)CC2)ccc1Nc1ncc(Cl)c(Nc2ccccc2P(C)(C)=O)n1 [Brigatinib]
Kd (PTK2B; read-out: KDapp): 5.14 nM
EC50 (PTK2B): 12.4 nM
pKDapp (PTK2B): 8.29
EC50 (WEE1): 1950 nM
pKDapp (WEE1): 5.91
Kd (WEE1; read-out: KDapp): 1240 nM

Nc1ccn([C@@H]2O[C@H](CO)[C@@H](O)C2(F)F)c(=O)n1 [GEM, Gemcitabine]
Regulation_24h, CLN6 protein expression ([1]; protein CLN6): up
Regulation_24h, E2F6 protein expression ([1]; protein E2F6): up
Regulation_24h, HELZ2 protein expression ([1]; protein HELZ2): up
Regulation_24h, PRKACA protein expression ([1]; protein PRKACA): up
Regulation_24h, RASSF10 protein expression ([1]; protein RASSF10): up
EC50 (PDO UME053; Homo sapiens, PDO UME053, GEM + Elimusertib (ATRi) dose1, mean of replicates, read-out: EC50 mean): 3.76 nM
EC50 (PDO UME053; Homo sapiens, PDO UME053, GEM + Elimusertib (ATRi) dose1, per replicate, read-out: EC50): 4.76 nM
EC50 (PDO UME053; Homo sapiens, PDO UME053, GEM + Elimusertib (ATRi) dose1, per replicate, read-out: pEC50 (converted)): 4.79 nM
EC50 (PDO UME053; Homo sapiens, PDO UME053, GEM + Elimusertib (ATRi) dose2, mean of replicates, read-out: EC50 mean): 2.48 nM
EC50 (PDO UME053; Homo sapiens, PDO UME053, GEM + Elimusertib (ATRi) dose3, mean of replicates, read-out: EC50 mean): 2.58 nM
EC50 (PDO UME053; Homo sapiens, PDO UME053, GEM alone, mean of replicates, read-out: EC50 mean): 3.83 nM
EC50 (PDO UME053; Homo sapiens, PDO UME053, GEM alone, per replicate, read-out: EC50): 4.9 nM
EC50 (PDO UME053; Homo sapiens, PDO UME053, GEM alone, per replicate, read-out: pEC50 (converted)): 4.9 nM
EC50 (PDO UME053; Homo sapiens, PDO UME053, GEM alone, read-out: EC50 mean): 3.8 nM
EC50 (PDO UME053; Homo sapiens, PDO UME053, experiment GEM (GEM alone), mean of replicates, read-out: EC50 mean): 3.83 nM
EC50 (PDO UME053; Homo sapiens, PDO UME053, experiment GEM (GEM alone), single replicates, read-out: pEC50 (converted)): 5.75 nM
EC50 (PDO UME053; Homo sapiens, SET-2, PDO UME053, PDO set 2, experiment GEM (GEM alone), single replicates, read-out: EC50): 5.76 nM
Curve bottom (PDO UME053; [2]): 4.76 and 3.51 and 3.42 and 4.59 and 3.68 and 3.05
Curve slope (PDO UME053; [2]): -0.0232 and -0.0231 and -0.0214 and -0.0351 and 0.00541 and -0.00734
Curve top (PDO UME053; [2]): 1.03 and 0.94
pEC50 (PDO UME053; [2]): 8.45 and 8.47 and 8.34 and 8.43 and 8.52
EC50 (PDO UME053; PDO UME053, GEM + Elimusertib (ATRi) dose1, per replicate, read-out: EC50): 3.51 nM and 3.42 nM and 4.59 nM and 3.68 nM and 3.05 nM
Curve bottom (PDO UME053; [3]): 3.13 and 3.73 and 2.51 and 1.19 and 1.27
Curve slope (PDO UME053; [3]): -0.0242 and -0.026 and -0.0173 and -0.00205 and -0.00262
Curve top (PDO UME053; [3]): 1.01 and 0.93 and 0.97 and 0.99
pEC50 (PDO UME053; [3]): 8.50 and 8.43 and 8.60 and 8.92 and 8.90
EC50 (PDO UME053; PDO UME053, GEM + Elimusertib (ATRi) dose2, per replicate, read-out: EC50): 3.13 nM and 3.73 nM and 2.51 nM and 1.19 nM and 1.27 nM
Curve bottom (PDO UME053; [4]): 2.72 and 2.86 and 2.18 and 1.18 and 1.85
Curve slope (PDO UME053; [4]): -0.02 and -0.027 and -0.013 and -0.0115
Curve top (PDO UME053; [4]): 0.85 and 0.95 and 0.90
pEC50 (PDO UME053; [4]): 8.56 and 8.54 and 8.66 and 8.93 and 8.73
EC50 (PDO UME053; PDO UME053, GEM + Elimusertib (ATRi) dose3, per replicate, read-out: EC50): 2.72 nM and 2.86 nM and 2.18 nM and 1.18 nM and 1.85 nM
Curve bottom (PDO UME053; [5]): 4.90 and 3.43 and 2.87 and 2.77 and 4.39 and 2.68
Curve slope (PDO UME053; [5]): -0.0183 and 6.71e-5 and 0.00446 and -0.00144 and 0.00242 and 0.00525
Curve top (PDO UME053; [5]): 1.30 and 1.34
pEC50 (PDO UME053; [5]): 8.46 and 8.54 and 8.56 and 8.36 and 8.57
EC50 (PDO UME053; PDO UME053, GEM alone, per replicate, read-out: EC50): 3.43 nM and 2.87 nM and 2.77 nM and 4.39 nM and 2.68 nM
EC50 (PDO UME053; PDO UME053, PDO set 2, experiment GEM (GEM alone), single replicates, read-out: EC50): 3.82 nM
Curve bottom (PDO UME053; [6]): 5.76 and 3.82
Curve top (PDO UME053; [6]): 0.62
pEC50 (PDO UME053; PDO UME053, experiment GEM (GEM alone), single replicates): 8.42

C[C@]12O[C@H](C[C@]1(O)CO)n1c3ccccc3c3c4c(c5c6ccccc6n2c5c31)CNC4=O [Lestaurtinib]
EC50 (STK4): 59.4 nM
